# Experimental data from patent US20060069132A1, “Azolecarboxamide herbicides” (priority 2004, published 2006).
# Tests used:
# Surinam grass = test: Test B pre-/postemergence herbicide test; assay type: in vivo, Urochloa decumbens; conditions: for Surinam Grass plant response rating: scale 0 (no effect) to 100 (complete control)
# Procedure, shortened: (§1)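 Seeds were planted and treated preemergence with compounds formulated in a non-phytotoxic solvent mixture containing surfactant, while plants at the 1- to 4-leaf stage (2 to 18 cm) received postemergence sprays. Flooded paddy plants were grown to the 2-leaf stage. After 13 to 15 days in a greenhouse, injury was visually rated 0–100 against untreated controls.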
# large crabgrass [1] = test: Test B pre-/postemergence herbicide test; assay type: in vivo, Digitaria sanguinalis
# Procedure, shortened: as §1
# cocklebur = test: Test C pre-/postemergence herbicide test; assay type: in vivo, Xanthium strumarium; conditions: preemergence
# Procedure, shortened: (§2)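 Visual ratings on a 0–100 scale (100 = complete control) made versus untreated controls after 12 to 14 greenhouse days. Test chemicals, formulated in surfactant-containing non-phytotoxic solvent, applied preemergence to planted seeds or postemergence to 1- to 4-leaf plants (2 to 18 cm).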
# large crabgrass [2] = test: Test C pre-/postemergence herbicide test; assay type: in vivo, Digitaria sanguinalis; conditions: preemergence
# Procedure, shortened: as §2
# johnsongrass = test: Test C pre-/postemergence herbicide test; assay type: in vivo, Sorghum halepense; conditions: preemergence
# Procedure, shortened: as §2
# morningglory = test: Test C pre-/postemergence herbicide test; assay type: in vivo, Ipomoea coccinea; design: key to Plant response rating, Morningglory: 0 = no effect, 100 = complete control; conditions: preemergence
# Procedure, shortened: as §2
# eastern black nightshade = test: Test C pre-/postemergence herbicide test; assay type: in vivo, Solanum ptycanthum; conditions: preemergence
# Procedure, shortened: as §2
# yellow nutsedge = test: Test C pre-/postemergence herbicide test; assay type: in vivo, Cyperus esculentus; conditions: preemergence
# Procedure, shortened: as §2
# barnyardgrass = test: Test C flooded paddy test; assay type: in vivo, Echinochloa crus-galli; conditions: for Plant response rating, Barnyardgrass: 500 g ai/ha, visual rating after 12 to 14 days
# Procedure, shortened: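 Visual rating, 0 (no effect) to 100 (complete control), vs. controls at 12–14 d in greenhouse. Postemergence: 1–4-leaf plants, 2–18 cm. Paddy: flooded, barnyardgrass at 2-leaf stage.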
# [3] = 500 g ai/ha, scale 0 to 100 (0 no effect, 100 complete control), visual, 12 to 14 days
# [4] = 62 g ai/ha, scale 0 to 100 (0 no effect, 100 complete control)
# [5] = 250 g ai/ha, scale of 0 to 100, 0 is no effect, 100 is complete control
# [6] = scale 0 to 100 (0 no effect, 100 complete control)
# [7] = 125 g ai/ha, scale 0 (no effect) to 100 (complete control), visual, 12 to 14 days
structure (smiles),measurement,setting,value
CCc1nn(C(C)C)nc1C(=O)Nc1cccc(C(=O)N(C)CC)c1 [Compound 386],"Plant response rating (0 to 100 scale), Surinam Grass","Surinam grass; 125 g ai/ha, 0 is no effect, 100 is complete control, preemergence",80
same,Surinam Grass plant response rating,"Surinam grass; 125 g ai/ha, visual rating, postemergence",10
same,Surinam Grass plant response rating,"Surinam grass; Postemergence, 500 g ai/ha",10
same,"Plant response rating (0 to 100 scale), Crabgrass, Large","large crabgrass [1]; 125 g ai/ha; 0 is no effect, 100 is complete control; preemergence",100
same,"Crabgrass, Large plant response rating","large crabgrass [1]; 125 g ai/ha; visual rating, scale 0 (no effect) to 100 (complete control); postemergence",10
same,"Crabgrass, Large plant response rating","large crabgrass [1]; postemergence, 500 g ai/ha; scale 0 to 100, 0 is no effect, 100 is complete control",20
same,"Plant response rating, Cocklebur","cocklebur; 62 g ai/ha, scale 0 to 100",0
same,"Plant response rating (0 = no effect, 100 = complete control), Cocklebur",cocklebur; 125 g ai/ha,20
same,"Plant response rating, Cocklebur","cocklebur; 250 g ai/ha, scale 0-100",30
same,"Plant response rating, Cocklebur",cocklebur; [3],70
same,"Plant response rating, Crabgrass, Large","large crabgrass [2]; 62 g ai/ha, scale 0 to 100",98
same,"Plant response rating (0 = no effect, 100 = complete control), Crabgrass, Large",large crabgrass [2]; 125 g ai/ha,100
same,"Plant response rating, Crabgrass, Large","large crabgrass [2]; 250 g ai/ha, scale 0-100",100
same,"Plant response rating, Crabgrass, Large",large crabgrass [2]; [3],100
same,"Plant response rating, Johnsongrass","johnsongrass; 62 g ai/ha, scale 0 to 100",85
same,"Plant response rating (0 = no effect, 100 = complete control), Johnsongrass",johnsongrass; 125 g ai/ha,100
same,"Plant response rating, Johnsongrass","johnsongrass; 250 g ai/ha, scale 0-100",100
same,"Plant response rating, Johnsongrass",johnsongrass; [3],100
same,"Plant response rating, Morningglory","morningglory; 62 g ai/ha, scale 0 to 100",55
same,"Plant response rating (0 = no effect, 100 = complete control), Morningglory",morningglory; 125 g ai/ha,95
same,"Plant response rating, Morningglory","morningglory; 250 g ai/ha, scale 0-100",100
same,"Plant response rating, Morningglory",morningglory; [3],100
same,"Plant response rating, Nightshade","eastern black nightshade; 62 g ai/ha, scale 0 to 100",90
same,"Plant response rating (0 = no effect, 100 = complete control), Nightshade",eastern black nightshade; 125 g ai/ha,95
same,"Plant response rating, Nightshade","eastern black nightshade; 250 g ai/ha, scale 0-100",95
same,"Plant response rating, Nightshade",eastern black nightshade; [3],100
same,"Plant response rating, Nutsedge, Yellow","yellow nutsedge; 62 g ai/ha, scale 0 to 100",0
same,"Plant response rating (0 = no effect, 100 = complete control), Nutsedge, Yellow",yellow nutsedge; 125 g ai/ha,10
same,"Plant response rating, Nutsedge, Yellow","yellow nutsedge; 250 g ai/ha, scale 0-100",40
same,"Plant response rating, Nutsedge, Yellow",yellow nutsedge; [3],60
same,Barnyardgrass plant response rating,barnyardgrass; [4],30
same,Barnyardgrass plant response rating,"barnyardgrass; 125 g ai/ha, scale 0 to 100 (0 no effect, 100 complete control)",50
same,Barnyardgrass plant response rating,barnyardgrass; [5],80
same,"Plant response rating, Barnyardgrass",barnyardgrass; [6],95
CC(=O)c1cccc(NC(=O)c2cc(C(C)(C)C)nn2CCF)c1 [Compound 128],"Plant response rating, Surinam Grass","Surinam grass; 500 g ai/ha, visual rating 0-100, 0 no effect, 100 complete control, preemergence",60
same,Surinam Grass plant response rating,"Surinam grass; postemergence, 125 g ai/ha, visual rating",10
same,Surinam Grass plant response rating,"Surinam grass; postemergence, 500 g ai/ha, visual rating",20
same,"Plant response rating, Surinam Grass","Surinam grass; preemergence, 125 g ai/ha, 0 to 100 scale, 0 is no effect, 100 is complete control",40
same,"Plant response rating, Crabgrass, Large","large crabgrass [1]; 500 g ai/ha; visual rating 0-100, 0 no effect, 100 complete control; preemergence",100
same,"Crabgrass, Large plant response rating","large crabgrass [1]; postemergence, 125 g ai/ha; visual rating, scale 0 (no effect) to 100 (complete control)",20
same,"Crabgrass, Large plant response rating","large crabgrass [1]; postemergence, 500 g ai/ha; visual rating, scale 0 (no effect) to 100 (complete control)",20
same,"Plant response rating, Crabgrass, Large","large crabgrass [1]; preemergence, 125 g ai/ha; 0 to 100 scale, 0 is no effect, 100 is complete control",90
same,"Plant response rating (0 = no effect, 100 = complete control), Cocklebur",cocklebur; 62 g ai/ha,10
same,"Plant response rating, Cocklebur",cocklebur; [7],10
same,"Plant response rating (0 = no effect, 100 = complete control), Crabgrass, Large",large crabgrass [2]; 62 g ai/ha,100
same,"Plant response rating, Crabgrass, Large",large crabgrass [2]; [7],100
same,"Plant response rating (0 = no effect, 100 = complete control), Johnsongrass",johnsongrass; 62 g ai/ha,90
same,"Plant response rating, Johnsongrass",johnsongrass; [7],90
same,"Plant response rating (0 = no effect, 100 = complete control), Morningglory",morningglory; 62 g ai/ha,30
same,"Plant response rating, Morningglory",morningglory; [7],30
same,"Plant response rating (0 = no effect, 100 = complete control), Nightshade",eastern black nightshade; 62 g ai/ha,90
same,"Plant response rating, Nightshade",eastern black nightshade; [7],90
same,"Plant response rating, Nutsedge, Yellow","yellow nutsedge; 16 g ai/ha, scale 0 to 100, last section of Table C",10
same,"Plant response rating, Nutsedge, Yellow","yellow nutsedge; 31 g ai/ha, scale 0 to 100, last section of Table C",70
same,"Plant response rating, Nutsedge, Yellow",yellow nutsedge; [7],70
same,Barnyardgrass plant response rating,barnyardgrass; [4],30
same,Barnyardgrass plant response rating,"barnyardgrass; 125 g ai/ha, scale of 0 to 100, 0 is no effect, 100 is complete control",35
same,Barnyardgrass plant response rating,barnyardgrass; [5],60
same,"Plant response rating, Barnyardgrass",barnyardgrass; [6],65
